Residues, ends and D or L forms follow the SMILES beside them. No end group written: not given here.
How the values were obtained:
[1] = target: T1, binding of properdin to C3b coated plates (Homo sapiens, UniProt P01024); conditions: peptides at 0-200 μg/ml; cited from earlier work
T1 construct: The resulting convertase proteolytically modifies C3, producing the C3b fragment

[2] = target: T2, properdin binding to C3bBb (Homo sapiens, UniProt P01024+P27918); assay: C3b(Bb)-properdin binding inhibition in human serum (ELISA); conditions: peptides; tested as described in Example 2; read-out: IC50, blocking of C3bBb binding
T2 construct: The resulting convertase proteolytically modifies C3, producing the C3b fragment; tissue Sigma Chemical Company (serum)
Experimental: This assay was carried out as described in Example 1 above with some changes. Briefly, microtiter wells were coated with C3b, washed, blocked and incubated with various concentrations of normal human serum (NHS) (Sigma Chemical Company, Cat. No. S1764) diluted in blocking solution for 2 hours at room temperature. Under the conditions of this binding assay, factor B in serum will bind solid phase-bound C3b and, after cleavage by factor D in serum, generates C3bBb. Properdin is known to bind C3bBb with high affinity (Farries, T. C., P. J. Lachmann, and R. A. Harrison, 1988, Biochem. 252:47-54). Uncoated wells served as background controls. After washing, bound-properdin was detected with the anti-properdin antibody as described in Example 1 above.
To evaluate the effect of the blocking antibody to inhibit properdin binding to C3b(Bb), various concentrations of the blocking antibody described in Example 1 above were added to a fixed concentrations of serum (4% in blocking solution). The amount of properdin bound to C3b(Bb) was detected using the detection system described in Example 1 above.

[3] = test system: C5b-9 membrane-attack complex (MAC) formation via the alternative pathway; assay: Alternative pathway-dependent MAC assay on LPS-coated wells (ELISA); format: biochemical, human; conditions: peptides; ELISA as described in Example 3; read-out: IC50, inhibition of MAC formation
From the text: The binding data of Examples 1 and 2 above reveal that the properdin monoclonal antibody prevents the binding of properdin to C3b and the functional C3 convertase (C3bBb). […] The final end product of this pathway is the C5b-9 membrane-attack complex (MAC). To analyze the effects of the properdin antibody on MAC formation via the alternative pathways, an assay was utilized in which bacterial LPS was used as a substrate to initiate the alternative complement pathway cascade.
Microtiter wells were coated with LPS (2 μg/50 μl per well) in VBS overnight at 4° C. Uncoated wells served as background controls. After aspirating the LPS solution, wells were treated with blocking solution and incubated with various concentrations of normal human serum. Following a 3 hour incubation at 37° C., deposited MAC was detected with mouse anti-human soluble C5b-9 monoclonal antibody (Quidel, Cat. No. A239) using standard ELISA methodologies essentially as described in the Examples above. The effect of the blocking antibody on the MAC formation was evaluated by adding various concentrations of blocking antibody to a fixed concentration of serum (4% in blocking solution). The amount of inhibition of soluble C5b-9 formation was determined using the antibody detection system described in the Examples above.

human C3b = target: T3, human C3b (Homo sapiens, UniProt P01024); assay: C3b-properdin binding ELISA (properdin titration on immobilized C3b); conditions: FIG. 1, read-out: apparent binding constant (concentration of properdin needed to reach half-maximal binding to C3b)
T3 construct: The resulting convertase proteolytically modifies C3, producing the C3b fragment; purchased Calbiochem, San Diego, Calif; 204860
Experimental: Polystyrene microtiter plates were coated with human C3b (0.5 μg/50 μl per well) (Calbiochem, San Diego, Calif., Cat. No. 204860) in Veronal buffered saline (VBS): (5 mM diethyl barbiturate, 120 mM NaCl, 5 mM MgCl2, 5 mM EGTA) overnight at 4° C. After aspirating the C3b solution, wells were blocked with VBS containing 0.5% human serum albumin (HSA) (Sigma Chemical Company, St. Louis, Mo., Cat. No. A9511) for 2 hours at room temperature. Wells without C3b coating served as background controls. Aliquots of human properdin (or factor P) (Advanced Research Technology, San Diego, Calif., Cat. No. A139) at varying concentrations in blocking solution were added to the wells. Following a 2 hour incubation at room temperature, the wells were extensively rinsed with VBS.
C3b-bound properdin was detected by the addition of mouse monoclonal anti-human properdin antibody (detection antibody) (Quidel, San Diego, Calif., anti-human properdin monoclonal antibody P#2, Cat. No. A235) at 1:1000 dilution in blocking solution, which was allowed to incubate for 1 hour at room temperature. […] After incubation for 10 minutes at 25° C., the reaction of TMB was quenched by the addition of 100 μl of phosphoric acid, and the plate was read at 450 nm in a microplate reader (e.g., SPECTRA MAX 250, Molecular Devices, Sunnyvale, Calif.). […]

[4] = test system: Fcγ receptors on neutrophils; assay: Chemiluminescence assay for superoxide production in diluted whole blood; format: cell-based; conditions: 5 μg/ml properdin alone
From the text: Such agents may be screened for their ability to activate Fcγ receptors by a variety of assays known in the art. Since superoxide generation is one of the classic responses of neutrophils and other phagocytes to activation via Fcγ receptors (RII), a specific assay for superoxide release from cells in diluted whole blood was utilized to screen and evaluate agents and the possible role of Fcγ receptors in neutrophil activation by such an agent. Monoclonal antibody agents are generally ineffective aggregating agents upon binding to their antigen and thus ineffective to activate Fcγ receptors via immune complex formation. However, Fcγ activation was detected for a blocking anti-properdin monoclonal antibody as follows.
A chemiluminescence assay for superoxide production in diluted whole blood was performed (Tose, M. F. and A. Itamedani, 1992, Am. J. Clin. Pathol. 97:566-573). Fresh blood was collected by a finger prick and rapidly diluted 350-fold into phenol red-free RPMI-1640 media containing Pen-Strep which was buffered with 10 mM HEPES (pH 7.4) at 37° C. The media also contains 10 μM lucigenin (Sigma Chemical Co.), a compound which becomes chemiluminescent when reduced by superoxide. […] At regular intervals, chemiluminescence was monitored by transferring each sample into a liquid scintillation counter (Packard Model 1900 TR) operated in a single photon mode to determine the “cpm”.

CC(=O)NCC(=O)N[C@@H](CC(C)C)C(=O)N[C@@H](CS)C(=O)N[C@@H](CCC(N)=O)C(=O)N1CCC[C@H]1C(=O)N[C@@H](CS)C(=O)N[C@@H](CCCNC(=N)N)C(=O)N[C@@H](CO)C(=O)N1CCC[C@H]1C(=O)N[C@@H](CCCNC(=N)N)C(=O)O [Peptide 1] (Ac-GLCQPCRSPR-OH; N-terminus and C-terminus assumed)
compete with properdin for C3 binding [1]: compete | IC50 [2]: 400 to 600 µM | IC50 [3]: 268 µM

Ac-CRSPRWSLWS (N-terminus assumed) [peptide 2]
compete with properdin for C3 binding [1]: compete | IC50 [2]: 400 to 600 µM | IC50 [3]: 335 µM

Ac-RYRRCVGWNG (N-terminus assumed) [peptide 3]
compete with properdin for C3 binding [1]: compete | IC50 [2]: 400 to 600 µM | IC50 [3]: 242 µM

human properdin: human properdin (or factor P), Advanced Research Technology Cat. No. A139
Kd (human C3b): ~0.001 µM | superoxide levels over control levels [4]: not significantly elevated

Reference: US20030198636A1, “Process for inhibiting complement activation via the alternative pathway” (priority 1997, published 2003)
